Activity calls are given as the source filed them.
Key:
[1] = target: Luciferin 4-monooxygenase (Photinus pyralis, UniProt P08659); experiment: inhibition of purified Photinus pyralis luciferase – biochemical, luminescence, dose response (AID 1891)
[2] = Luminescence Cell-Based Dose Confirmation HTS to Identify Inhibitors of Platelet Dense Granule Release. [Related pubchem assays: 1663 (Primary HTS), 1678 (Summary of Project)]; format: functional
[3] = target: Cytochrome P450 2D6 (Homo sapiens, UniProt P10635)
Chain of Cytochrome P450 2D6 (P10635 whole entry): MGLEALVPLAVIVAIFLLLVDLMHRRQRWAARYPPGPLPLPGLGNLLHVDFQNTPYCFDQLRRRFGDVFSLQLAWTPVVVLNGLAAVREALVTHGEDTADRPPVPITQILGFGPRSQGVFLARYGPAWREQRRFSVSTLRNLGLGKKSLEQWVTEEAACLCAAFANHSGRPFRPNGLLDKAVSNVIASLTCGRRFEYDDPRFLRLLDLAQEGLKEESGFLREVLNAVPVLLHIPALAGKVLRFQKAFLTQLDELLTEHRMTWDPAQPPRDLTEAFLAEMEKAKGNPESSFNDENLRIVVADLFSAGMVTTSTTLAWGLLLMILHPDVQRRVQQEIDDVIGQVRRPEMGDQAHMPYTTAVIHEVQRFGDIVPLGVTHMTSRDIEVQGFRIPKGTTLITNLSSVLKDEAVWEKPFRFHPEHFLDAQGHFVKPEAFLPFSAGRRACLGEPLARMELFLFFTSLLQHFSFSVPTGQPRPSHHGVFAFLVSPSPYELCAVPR

[4] = target: FAD-linked sulfhydryl oxidase ALR (Homo sapiens, UniProt P55789); experiment: ALR-catalysed DTT oxidation blockers – biochemical, H2O2 detection, luminescence, cherry-pick, dose response (AID 493248)
Chain of FAD-linked sulfhydryl oxidase ALR (P55789 whole entry): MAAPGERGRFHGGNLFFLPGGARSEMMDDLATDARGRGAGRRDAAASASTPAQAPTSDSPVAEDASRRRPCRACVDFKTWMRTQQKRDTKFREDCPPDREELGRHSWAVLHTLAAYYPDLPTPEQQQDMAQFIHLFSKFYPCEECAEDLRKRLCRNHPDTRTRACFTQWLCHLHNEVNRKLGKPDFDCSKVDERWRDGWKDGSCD

[5] = target: T1, Rac GTPase-activating protein 1 (Homo sapiens, UniProt Q9H0H5); experiment: blockers of MgcRacGAP-driven Rac1 GTP hydrolysis – biochemical, ADP Hunter fluorescence, primary and confirmatory, confirmation (AID 624330); format: functional
T1 sequence (Q9H0H5 whole entry): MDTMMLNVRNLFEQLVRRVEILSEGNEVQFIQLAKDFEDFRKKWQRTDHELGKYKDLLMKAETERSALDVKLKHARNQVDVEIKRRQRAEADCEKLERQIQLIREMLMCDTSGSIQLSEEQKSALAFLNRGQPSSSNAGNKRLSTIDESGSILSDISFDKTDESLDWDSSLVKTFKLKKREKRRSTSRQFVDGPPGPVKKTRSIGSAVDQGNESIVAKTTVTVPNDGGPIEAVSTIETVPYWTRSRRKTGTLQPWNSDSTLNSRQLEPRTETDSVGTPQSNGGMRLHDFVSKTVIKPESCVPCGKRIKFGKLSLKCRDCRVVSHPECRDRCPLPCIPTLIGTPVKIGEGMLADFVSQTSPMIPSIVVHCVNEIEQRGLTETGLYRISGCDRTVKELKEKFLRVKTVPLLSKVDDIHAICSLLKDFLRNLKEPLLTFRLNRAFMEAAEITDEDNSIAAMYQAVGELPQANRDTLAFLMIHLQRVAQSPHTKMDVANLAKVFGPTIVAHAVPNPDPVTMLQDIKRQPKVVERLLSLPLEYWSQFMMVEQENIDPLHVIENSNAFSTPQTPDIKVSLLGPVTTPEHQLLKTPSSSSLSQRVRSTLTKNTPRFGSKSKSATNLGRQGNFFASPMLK

[6] = target: Cytochrome P450 2C19 (Homo sapiens, UniProt P33261); experiment: Cytochrome panel assay with activity outcomes. Panel member name: p450-cyp2c19 Compounds with AC50 equal or less than 10 uM are considered active; format: functional
Chain of Cytochrome P450 2C19 (P33261 whole entry): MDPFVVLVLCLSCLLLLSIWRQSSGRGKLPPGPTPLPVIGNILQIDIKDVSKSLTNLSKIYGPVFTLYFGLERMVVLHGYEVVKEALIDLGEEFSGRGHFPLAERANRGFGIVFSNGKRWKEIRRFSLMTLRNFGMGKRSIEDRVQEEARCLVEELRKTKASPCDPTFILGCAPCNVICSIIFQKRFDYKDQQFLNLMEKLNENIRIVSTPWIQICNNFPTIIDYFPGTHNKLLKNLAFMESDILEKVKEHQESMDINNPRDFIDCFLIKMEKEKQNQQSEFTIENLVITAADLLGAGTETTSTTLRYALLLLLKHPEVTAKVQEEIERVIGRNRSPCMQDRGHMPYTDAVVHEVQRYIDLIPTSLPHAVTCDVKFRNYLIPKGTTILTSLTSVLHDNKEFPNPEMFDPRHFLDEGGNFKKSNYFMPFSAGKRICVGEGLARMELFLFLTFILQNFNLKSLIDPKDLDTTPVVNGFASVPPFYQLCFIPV

[7] = Luminescence Cell-Based Dose Confirmation HTS to Identify Activators of 5'UTR Stem-Loop Driven Alpha-Synuclein mRNA Translation in H4 Neuroglioblastoma Cells. [Related pubchem assays: 1829 (Project Summary), 1814 (Primary HTS)]; format: functional
[8] = Luminescence Cell-Based Dose Response HTS to Identify Activators of Luciferase Translation or Activity in H4 […] Cells. [Related pubchem assays: 1829 (Project Summary), 1814 (Primary HTS)]; format: functional
[9] = system: H4; experiment: Luminescence Cell-Based Dose Response HTS to Identify Activators of 5'UTR Stem-Loop Driven Prion Protein mRNA Translation in H4 Neuroglioblastoma Cells. [Related pubchem assays: 1829 (Project Summary), 1814 (Primary HTS)]; format: functional; settings: Homo sapiens
[10] = target: T2, Cytochrome P450 1A2 (Homo sapiens, UniProt P05177);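 further: PubChem cytochrome P450 panel assay, CYP1A2 panel member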
T2 sequence (P05177 whole entry): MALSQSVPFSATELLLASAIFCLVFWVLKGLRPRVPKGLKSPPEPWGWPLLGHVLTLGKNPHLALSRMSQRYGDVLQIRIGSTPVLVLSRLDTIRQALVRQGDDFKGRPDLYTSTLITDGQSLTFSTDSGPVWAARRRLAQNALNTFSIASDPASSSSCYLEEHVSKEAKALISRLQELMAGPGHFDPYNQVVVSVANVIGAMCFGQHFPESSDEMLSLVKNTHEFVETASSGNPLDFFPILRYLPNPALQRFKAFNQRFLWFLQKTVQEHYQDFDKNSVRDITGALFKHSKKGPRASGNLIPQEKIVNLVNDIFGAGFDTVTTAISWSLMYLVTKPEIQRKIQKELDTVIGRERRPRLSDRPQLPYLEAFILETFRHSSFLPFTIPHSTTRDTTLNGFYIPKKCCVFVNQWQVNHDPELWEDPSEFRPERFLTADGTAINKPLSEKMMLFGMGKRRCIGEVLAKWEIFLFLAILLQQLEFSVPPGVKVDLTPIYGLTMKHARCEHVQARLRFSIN

[11] = target: Cytochrome P450 2C9 (Homo sapiens, UniProt P11712)
Chain of Cytochrome P450 2C9 (P11712 whole entry): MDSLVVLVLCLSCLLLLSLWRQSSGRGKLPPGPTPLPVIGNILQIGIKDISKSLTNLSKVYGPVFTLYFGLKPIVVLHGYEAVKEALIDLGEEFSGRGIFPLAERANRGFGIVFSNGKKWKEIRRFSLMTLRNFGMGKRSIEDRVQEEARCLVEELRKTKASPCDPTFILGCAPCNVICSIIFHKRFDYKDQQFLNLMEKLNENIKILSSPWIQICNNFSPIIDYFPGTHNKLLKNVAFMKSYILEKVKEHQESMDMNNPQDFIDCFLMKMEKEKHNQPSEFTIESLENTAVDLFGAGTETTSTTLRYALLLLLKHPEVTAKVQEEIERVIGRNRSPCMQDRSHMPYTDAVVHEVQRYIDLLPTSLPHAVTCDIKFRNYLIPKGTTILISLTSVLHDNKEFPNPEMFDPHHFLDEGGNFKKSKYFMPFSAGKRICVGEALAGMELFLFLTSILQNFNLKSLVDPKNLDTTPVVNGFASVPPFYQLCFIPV

[12] = target: Cytochrome P450 3A4 (Homo sapiens, UniProt P08684);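 further: CYP3A4 tested as one member of a cytochrome P450 panel screen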
Chain of Cytochrome P450 3A4 (P08684 whole entry): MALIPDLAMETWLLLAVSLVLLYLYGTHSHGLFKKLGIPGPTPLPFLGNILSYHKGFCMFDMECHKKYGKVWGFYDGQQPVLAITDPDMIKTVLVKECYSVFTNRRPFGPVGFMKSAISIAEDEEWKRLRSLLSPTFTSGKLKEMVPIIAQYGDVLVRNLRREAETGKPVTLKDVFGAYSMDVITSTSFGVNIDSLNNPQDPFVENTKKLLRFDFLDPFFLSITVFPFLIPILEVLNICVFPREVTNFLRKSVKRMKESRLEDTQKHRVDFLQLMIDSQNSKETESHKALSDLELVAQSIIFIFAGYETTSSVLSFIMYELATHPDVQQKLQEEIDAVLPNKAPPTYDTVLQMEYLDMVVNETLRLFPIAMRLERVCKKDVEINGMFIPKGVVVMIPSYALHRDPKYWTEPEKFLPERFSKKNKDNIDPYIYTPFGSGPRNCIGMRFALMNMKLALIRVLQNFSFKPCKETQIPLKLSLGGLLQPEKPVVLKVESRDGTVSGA

Chain of Luciferin 4-monooxygenase (P08659 whole entry): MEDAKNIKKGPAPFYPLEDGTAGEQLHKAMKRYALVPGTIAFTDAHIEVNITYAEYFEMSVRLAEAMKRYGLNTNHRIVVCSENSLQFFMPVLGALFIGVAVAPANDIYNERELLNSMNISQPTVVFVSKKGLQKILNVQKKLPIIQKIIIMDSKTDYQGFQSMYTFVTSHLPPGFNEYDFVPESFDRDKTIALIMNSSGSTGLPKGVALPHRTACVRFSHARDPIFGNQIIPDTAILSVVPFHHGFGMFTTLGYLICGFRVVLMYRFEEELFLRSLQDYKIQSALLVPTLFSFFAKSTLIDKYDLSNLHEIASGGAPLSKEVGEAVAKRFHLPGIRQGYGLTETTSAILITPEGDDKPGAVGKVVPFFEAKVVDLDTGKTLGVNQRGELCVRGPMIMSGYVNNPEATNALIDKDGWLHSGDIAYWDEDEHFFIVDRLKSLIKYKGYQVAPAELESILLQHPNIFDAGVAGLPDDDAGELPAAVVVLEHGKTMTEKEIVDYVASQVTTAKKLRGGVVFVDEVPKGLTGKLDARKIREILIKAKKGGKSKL

N#C/C(=C\c1c[nH]c2ccccc12)c1nnc2n1CCCCC2
EC50 [1]: > 112 µM (not active) | EC50 [2]: > 112 µM (not active)

O=C(N/N=C\c1cccc(O)c1)c1ccncc1
AC50 [3]: 3.16 µM (inconclusive)

O=C(CN1C(=O)NC2(CCCC2)C1=O)Nc1cc(Cl)ccc1N1CCCC1
AC50 [4]: 0.244 µM (active)

Cn1c(=O)c2c(nc(OCc3ccc(Cl)cc3Cl)n2Cc2ccc(F)cc2)n(C)c1=O
EC50 [1]: > 112 µM (not active) | EC50 [2]: > 112 µM (not active)

CCN1CCN(CC(=O)N/N=C/c2cc(Br)cs2)CC1
IC50 [5]: 94.2 µM (active)

Cc1cnc(NC(=O)CN2CCN(c3ccccc3F)CC2)s1
IC50 [5]: 150 µM (active)

C[C@H](CN(C)C)C(O)(c1ccccc1)c1ccccc1
AC50 [6]: inconclusive | AC50 [3]: 3.98 µM (inconclusive)

CSc1nnc2c(n1)OC(C)N(C(=O)c1ccccc1)c1ccccc1-2 (centres undefined)
EC50 [7]: 15.4 µM (active) | EC50 [8]: > 120 µM (not active) | EC50 [9]: > 120 µM (not active) | AC50 [10]: 10 µM (inconclusive) | AC50 [11]: 31.6 µM (inconclusive)

O=C1CC(NCCC2=CCCCC2)C(=O)N1c1cccc(Cl)c1Cl (centres undefined)
AC50 [3]: 15.8 µM (inconclusive) | AC50 [10]: 15.8 µM (inconclusive) | AC50 [12]: 15.8 µM (inconclusive)

COc1ccc(-c2[nH]nc(C)c2-c2ccccc2OC)c(O)c1
AC50 [4]: < 0.005 µM (active)

COc1ccccc1CNc1nc(-c2cccnc2)nc2ccccc12
AC50 [3]: 25.1 µM (inconclusive) | AC50 [12]: 1.26 µM (inconclusive)

CSc1nc(/C=C2\C=Nc3ccccc32)c(O)n1C
EC50 [1]: 5.32 µM (active) | EC50 [2]: 0.812 µM (active) | AC50 [4]: 4.03 µM (active) | IC50 [5]: 41 µM (active)

CCCSC1=C(C#N)C(c2cccnc2)C(C(=O)OCC)=C(c2ccccc2)N1 (centres undefined)
AC50 [3]: 39.8 µM (inconclusive)

O=C(CN1CCCCCC1)Nc1nc2ccccc2s1
IC50 [5]: 173 µM (active)

Cn1c(-c2ccc3c(c2)OCO3)cnc1NCc1cccc(O)c1
AC50 [4]: 2.49 µM (active)

N/C(CSS(=O)(=O)O)=N\[C@@H]1C[C@H]2CC[C@@H]1C2
AC50 [6]: inconclusive | AC50 [3]: 7.94 µM (inconclusive) | AC50 [10]: 10 µM (inconclusive) | AC50 [11]: 7.94 µM (inconclusive)

CCCn1c(S)nnc1C(C)NC(=O)c1ccccc1 (centres undefined)
AC50 [4]: 3 µM (active)

O=C(CN1CCN(c2ccccc2O)CC1)NCCCc1ccccc1
AC50 [4]: 0.301 µM (active)

CC1CCC(NC(=O)c2ccc(CS(=O)(=O)Cc3ccccc3F)o2)CC1 (centres undefined)
EC50 [1]: > 112 µM (not active) | EC50 [2]: > 112 µM (not active) | AC50 [3]: 35.5 µM (inconclusive) | AC50 [10]: 0.251 µM (inconclusive) | AC50 [12]: 14.1 µM (inconclusive) | AC50 [11]: 17.8 µM (inconclusive)

COC(=O)C1CC1C(NC(=O)[C@H]1CCCCN1)c1ccccc1 (some centres undefined)
AC50 [3]: 20 µM (inconclusive) | AC50 [11]: 20 µM (inconclusive)

Cc1ccc(Oc2nc3ccccn3c(=O)c2/C=C(\C#N)C(=O)NC2CCS(=O)(=O)C2)c(C)c1 (centres undefined)
EC50 [1]: > 112 µM (not active) | EC50 [2]: 6.03 µM (active)

From ChEMBL document CHEMBL1201862, “PubChem BioAssay data set” (2004)
